Tests used:
Type in all cases: in vivo
[1] = system: Pseudoperonospora cubensis; assay: Test A: cucumber downy mildew, spray the day before inoculation (disease rating, 100 = 100% disease control)
From the text: The test compounds were first dissolved in acetone in an amount equal to 3% of the final volume and then suspended at the desired concentration (in ppm) in acetone and purified water (50/50 mix by volume) containing 250 ppm of the surfactant Trem® 014 (polyhydric alcohol esters). The resulting test suspensions were then used in tests A-E. Spraying a 200 ppm test suspension to the point of run-off on the test plants was the equivalent of a rate of 500 g/ha.
The test suspension was sprayed to the point of run-off on cucumber seedlings. The following day the seedlings were inoculated with a spore suspension of Pseudoperonospora cubensis (the causal agent of cucumber downy mildew) and incubated in a saturated atmosphere at 20° C. for 24 h, and then moved to a growth chamber at 20° C. for 6 days, after which disease ratings were made.
Results for Tests A-F are given in Table A. In the table, a rating of 100 indicates 100% disease control and a rating of 0 indicates no disease control (relative to the controls). A dash (-) indicates no test results.

[2] = system: Erysiphe graminis f. sp. tritici; assay: Test E: wheat powdery mildew, spray the day before inoculation (disease rating, 100 = 100% disease control)
Outline: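 Wheat seedlings sprayed to run-off with compound suspended in acetone/water 50/50 with 250 ppm Trem 014 (200 ppm equivalent to 500 g/ha); inoculated next day with Erysiphe graminis f. sp. tritici spore dust. Kept 7 days at 20° C, then rated 0–100% disease control versus controls.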

Plasmopara viticola = assay: Test B: grape downy mildew, spray 24 h after inoculation (disease rating, 100 = 100% disease control)
Outline: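 Grape seedlings were inoculated with Plasmopara viticola and held 24 h saturated at 20 °C, then sprayed to run-off with compound suspension (acetone/water with 250 ppm Trem 014; 200 ppm ≈ 500 g/ha). After 5 days at 20 °C and 24 h saturation, disease was rated from 0 to 100% control versus untreated.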

[3] = system: Pseudoperonospora cubensis; assay: Test F: cucumber downy mildew, DMSO/acetone/water test suspension, spray the day before inoculation (disease rating, 100 = 100% disease control)
Outline: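 Compounds in DMSO (4% of final volume) suspended in 30/70 acetone/water and sprayed on cucumber seedlings; 250 ppm corresponds to 250 g/ha. Spore inoculation the next day, 24 h saturated humidity at 20° C., then 6 days at 20° C. Rating 0–100 is disease control relative to controls.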

Phytophthora infestans [4] = assay: whole plant or invertebrate; conditions: tomato late blight
Phytophthora infestans [5] = assay: whole plant or invertebrate; conditions: tomato late blight; spray 17 h after inoculation; tested at 40 ppm
[6] = spray the day before inoculation, compounds without asterisk (not 40 or 10 ppm)
[7] = spray 24 h after inoculation, compounds without asterisk (not 40 or 10 ppm)
[8] = DMSO/acetone/water suspension, spray the day before inoculation, compounds without asterisk
[9] = sprayed the day before inoculation, unmarked compounds (no asterisk, not 40 or 10 ppm)
[10] = sprayed the day before inoculation, 7 days at 20° C., unmarked compounds (no asterisk, not 40 or 10 ppm)
[11] = sprayed 24 h after inoculation, unmarked compounds (no asterisk, not 40 or 10 ppm)
[12] = DMSO/acetone/water test suspension, sprayed the day before inoculation, unmarked compounds (no asterisk)
[13] = spray the day before inoculation, tested at 40 ppm
[14] = spray 24 h after inoculation, tested at 40 ppm

| Compound | Test A disease rating (100 = 100% disease control, 0 = no disease control) [1, 6] [%] | Test E disease rating (100 = 100% disease control, 0 = no disease control) [2, 6] [%] | Test B disease rating (100 = 100% disease control, 0 = no disease control) (Plasmopara viticola; [7]) [%] | Test F disease rating (100 = 100% disease control, 0 = no disease control) [3, 8] [%] | Test C disease rating (100 = 100% disease control, 0 = no disease control) (Phytophthora infestans [4]; [6]) [%] | Test A disease rating (100 = 100% disease control, 0 = no disease control) [1, 9] | Test E disease rating (100 = 100% disease control, 0 = no disease control) [2, 10] | Test B disease rating (100 = 100% disease control, 0 = no disease control) (Plasmopara viticola; [11]) | Test F disease rating (100 = 100% disease control, 0 = no disease control) [3, 12] | Test C disease rating (100 = 100% disease control, 0 = no disease control) (Phytophthora infestans [4]; [9]) | Test E disease rating (100 = 100% disease control, 0 = no disease control) [2, 13] [%] | Test B disease rating (100 = 100% disease control, 0 = no disease control) (Plasmopara viticola; [14]) [%] | Test C disease rating (100 = 100% disease control, 0 = no disease control) (Phytophthora infestans [4]; [13]) [%] | Test D disease rating (100 = 100% disease control, 0 = no disease control) (Phytophthora infestans [5]) [%] |
| --- | --- | --- | --- | --- | --- | --- | --- | --- | --- | --- | --- | --- | --- | --- |
| Cc1ccccc1CC(=O)N1CCC(c2nc(C(=O)N(C)[C@H](C)c3ccccc3)cs2)CC1 [Compound 11] | 0 | 0 | 31 | 97 | 91 | – | – | – | – | – | – | – | – | – |
| C[C@H](c1ccccc1)N(C)C(=O)c1csc(C2CCN(C(=O)Nc3cccc(C(F)(F)F)c3)CC2)n1 [compound 156] | 100 | 21 | – | 100 | 62 | – | – | – | – | – | – | – | – | – |
| N-methyl-1-[1-[[5-methyl-3-(trifluoromethyl)-1H-pyrazol-1-yl]acetyl]-4-piperidinyl]-N-[(1R)-1,2,3,4-tetrahydro-1-naphthalenyl]-1H-pyrazole-3-carboxamide [Compound 231] | 100 | 0 | 80 | 96 | 100 | – | – | – | – | – | – | – | – | – |
| O=C(NC1CCCc2ccccc21)c1csc(C2CCN(C(=O)Cc3ccccc3Cl)CC2)n1 (centres unmarked) [compound 266] | – | – | – | – | – | 100 | 42 | 6 | 86 | 57 | – | – | – | – |
| N-methyl-2-[1-[[5-methyl-3-(trifluoromethyl)-1H-pyrazol-1-yl]acetyl]-4-piperidinyl]-N-[(1R,2S)-1,2,3,4-tetrahydro-2-methyl-1-naphthalenyl]-4-thiazolecarboxamide [Compound 234] | 100 | 21 | 100 | – | 100 | – | – | – | – | – | 0 | 100 | 100 | 99 |
| N-methyl-2-[1-[[5-methyl-3-(trifluoromethyl)-1H-pyrazol-1-yl]acetyl]-4-piperidinyl]-N-(1,2,3,4-tetrahydro-4-oxo-1-naphthalenyl)-4-thiazolecarboxamide [Compound 211] | 100 | 0 | 8 | 92 | 99 | – | – | – | – | – | – | – | – | – |
| N-methyl-2-[1-[[5-methyl-3-(trifluoromethyl)-1H-pyrazol-1-yl]acetyl]-4-piperidinyl]-N-[(1R)-1,2,3,4-tetrahydro-1-naphthalenyl]-4-oxazolecarboxamide [Compound 151] | 99 | 0 | 31 | 93 | 29 | – | – | – | – | – | – | – | – | – |
| N-(2,3-dihydro-2-methyl-1H-inden-1-yl)-N-methyl-2-[1-[[5-methyl-3-(trifluoromethyl)-1H-pyrazol-1-yl]acetyl]-4-piperidinyl]-4-thiazolecarboxamide [Compound 226] | 100 | 0 | 0 | 99 | 93 | – | – | – | – | – | – | – | – | – |
| CN(CCc1ccccc1)C(=O)c1csc(C2CCN(C(=O)Cc3ccccc3Cl)CC2)n1 [compound 162] | 0 | 42 | 14 | 43 | 15 | – | – | – | – | – | – | – | – | – |
| C[C@H](c1ccccc1)N(C)C(=O)c1csc(C2CCN(C(=O)Cc3cc(C(F)(F)F)ccc3Cl)CC2)n1 [compound 39] | 100 | 85 | 100 | 100 | 100 | – | – | – | – | – | – | – | – | – |
| O=C(NCCc1ccccc1)c1csc(C2CCN(C(=O)Cc3ccccc3Cl)CC2)n1 [compound 264] | – | – | – | – | – | 96 | 68 | 20 | 93 | 0 | – | – | – | – |
| Cc1ccc(C)c(CC(=O)N2CCC(c3nc(C(=O)N(C)[C@H](C)c4ccccc4)cs3)CC2)c1 [compound 47] | 100 | 96 | 100 | 100 | 100 | – | – | – | – | – | – | – | – | – |
| 2-[1-[(2,5-dimethylphenyl)acetyl]-4-piperidinyl]-N-methyl-N-[(1R)-1-phenylpropyl]-4-oxazolecarboxamide [Compound 154] | 0 | 0 | 20 | 95 | 0 | – | – | – | – | – | – | – | – | – |
| C[C@H](c1ccccc1)N(C)C(=O)c1csc(C2CCN(C(=O)Cc3cc(F)ccc3F)CC2)n1 [compound 44] | 97 | 21 | 57 | 0 | 98 | – | – | – | – | – | – | – | – | – |
| O=C(Cc1ccccc1Cl)N1CCC(c2nc(C(=O)N3CCCC3c3cccnc3)cs2)CC1 (centres unmarked) [compound 269] | – | – | – | – | – | 0 | 0 | 40 | – | 0 | – | – | – | – |
| 2-[1-[(3,5-dichloro-1H-pyrazol-1-yl)acetyl]-4-piperidinyl]-N-methyl-N-[(1R)-1,2,3,4-tetrahydro-1-naphthalenyl]-4-thiazolecarboxamide [Compound 238] | 0 | 0 | 6 | – | 0 | – | – | – | – | – | – | – | – | – |
| Cc1cc(C(F)(F)F)nn1CC(=O)N1CCC(c2nc(C(=O)N(C)C3c4ccccc4CCC3(C)C)cs2)CC1 (centres unmarked) [Compound 236] | 97 | 0 | 61 | – | 62 | – | – | – | – | – | 0 | 100 | 100 | 99 |
| C[C@H](c1ccccc1)N(C)C(=O)c1csc(C2CCN(C(=O)Cc3ccc(F)c(C(F)(F)F)c3)CC2)n1 [compound 34] | 85 | 0 | 48 | – | 31 | – | – | – | – | – | – | – | – | – |

Reference: patent US8586611B2 (priority 2005, dated 2013)
